Patent publication US20250241882A1, “COMPOSITION FOR TREATMENT OF THE SKIN” (DR. KURT WOLFF GMBH & CO. KG, priority 2022, published 2025)
“Also recorded” adds a separate entry of the source.

Tests used:
Format in all cases: cell-based, human
HaCaT cells [1] = assay: MTT assay, cell viability; details: after 48 h and 72 h of cultivation, versus control without DMG
Method: (§1) 1. As part of an in-vitro study, the effect of Na-dimethylglycinate was investigated in a cell culture model with human horn-forming keratinocyte cells. For this purpose, HaCaT cells were cultured for 1, 3, 5, and 7 days in DMEM medium (including fetal calf serum and an antibiotic-antimycotic mix) and, among other things, the viability, proliferation and migration of the cells were determined using suitable measuring methods, as well as the expression of the growth factors relevant for cell growth.
For this measurement, a so-called MTT assay was used to determine cellular metabolic activity as an indicator of cell viability and cytotoxicity. This colorimetric assay is based on the reduction of a yellow tetrazolium salt (3-(4,5-dimethylthiazol-2-yl)-2,5-diphenyltetrazolium bromide or MTT) to violet formazan crystals by metabolically active cells.
Human epidermal keratinocyte cells (HaCaT) were seeded in a 96-well plate at a cell density of 5,000 cells/well and cultured in medium (DMEM with 10% FBS, 1% penicillin-streptomycin, 0.5% Fungizone). […]
Cell viability was determined using MTT assay. The absorbance was measured using quadruple determination and standardized to the control at 24 h. […]

HaCaT cells [2] = assay: wound healing assay, cell migration; details: different DMG concentrations, 16 h, 20 h, 24 h, compared to the control without DMG
Method: as §1
To measure migration, a so-called wound healing assay was performed, based on previously published studies in T. Kawabata, T. Otsuka, K. Fujita, G. Sakai, R. Matsushima-Nishiwaki, O. Kozawa, H. Tokuda, International journal of molecular medicine 2018, 42, 3,149-3,156. The principle is based on measuring the migration of cells over time on a cultivation surface yet to be colonized. […]
At time 0 h, the wound was created and images were taken after 16 h, 20 h, and 24 h of cultivation. Based on the images, the cultivation surface, which had not yet been populated by cells, was determined using the ImageJ software. The measured values are standardized to the time point 0 h (maximum size of the wound) and given in %.

VEGF = VEGF gene expression by qRT-PCR in HaCaT cells; details: after 24 h of cultivation, standardized to GAPDH, versus control
Method: VEGF (vascular endothelial growth factor) promotes the growth and formation of new blood and lymph vessels. Gene expression was measured using a standard method of quantitative real-time PCR (qRT-PCR).
Human epidermal keratinocyte cells (HaCaT) were seeded in a 6-well plate at a cell density of 140,000 cells/well and cultured in medium (DMEM with 10% FBS, 1% penicillin-streptomycin, 0.5% Fungizone) at 37° C. and 5 vol. % CO2. The next day, the cell culture medium was changed without (control) and with the active ingredient concentrations already contained and the cells were harvested after 24 h. Gene expression was measured using qRT-PCR based on previously published studies in B. V. Diaz, M.-C. Lenoir, A. Ladoux, C. Frelin, M. Demarchez, S. Michel, Journal of Biological Chemistry 2000, 275, 642-650.
Shown is the relative gene expression of VEGF determined by qRT-PCR (triple determination, standardized to the corresponding gene expression of a constitutively expressed gene; GAPDH-glyceraldehyde-3-phosphate dehydrogenase). The mean value with standard deviation is given.

HaCaT cells [3] = assay: CyQUANT assay, cell proliferation; details: after 48 h and 72 h of cultivation, versus control without DMG
Method: as §1
To measure proliferation, a so-called CyQUANT assay was performed. In this fluorescence-based assay, the fluorescent dye used binds to DNA (deoxyribonucleic acid), whereby the content of cellular DNA is a direct measure of the number of cells within a sample. Human epidermal keratinocyte cells (HaCaT) were seeded in a 96-well plate at a cell density of 5,000 cells/well and cultured in medium (DMEM with 10% FBS, 1% penicillin-streptomycin, 0.5% Fungizone). The next day and after a further 24 h, 48 h and 72 h of cultivation at 37° C. and 5 vol. % CO2, the cell culture medium was changed without (control) or with the active ingredient concentrations already contained. […]
Cell proliferation was determined using the CyQUANT assay. Fluorescence was measured using triple determination each time and standardized to the control at 24 h. […]

CN(C)CC(=O)[O-].[Na+] [DMG, sodium dimethylglycinate]
cell viability (MTT assay) (HaCaT cells [1]): significant increase
migration and wound closure (HaCaT cells [2]): significantly faster
relative gene expression of VEGF (VEGF): significant increase; also recorded: significantly increased
cell proliferation (CyQUANT assay) (HaCaT cells [3]): significant increase
